From ChEMBL document CHEMBL1201862, “PubChem BioAssay data set” (2004)
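Each compound was tested at five concentrations against cells in 96-well plates for 48 hours. GI50 is the concentration that inhibits growth by half.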 Activity calls are given as the source filed them. No stated cut-off is given here; in the data, active = GI50 up to about 1.1 µM and inactive = higher.

Assays:
Test in all cases: NCI-60 cell line screen, 48 h
[1] = test system: HL-60
[2] = test system: HCT-116
[3] = test system: OVCAR-4
[4] = test system: KM12
[5] = test system: SR
[6] = test system: OVCAR-3
[7] = test system: HT-29
[8] = test system: MOLT-4
[9] = test system: RXF 393
[10] = test system: SK-MEL-2
[11] = test system: TK-10
[12] = test system: ACHN
[13] = test system: NCI-H460
[14] = test system: SN12C
[15] = test system: SW-620
[16] = test system: UACC-257
[17] = test system: T47D
[18] = test system: Hs-578T
[19] = test system: NCI/ADR-RES
[20] = test system: MDA-N

| Compound | GI50 [1] | GI50 [2] | GI50 [3] | GI50 [4] | GI50 [5] | GI50 [6] | GI50 [7] | GI50 [8] | GI50 [9] | GI50 [10] | GI50 [11] | GI50 [12] | GI50 [13] | GI50 [14] | GI50 [15] | GI50 [16] | GI50 [17] | GI50 [18] | GI50 [19] | GI50 [20] |
| --- | --- | --- | --- | --- | --- | --- | --- | --- | --- | --- | --- | --- | --- | --- | --- | --- | --- | --- | --- | --- |
| O=[N+]([O-])c1cccnc1S(=O)(=O)c1ccccc1 | 2.49 µM (inactive) | 6.93 µM (inactive) | 6.47 µM (inactive) | 19.6 µM (inactive) | 3.99 µM (inactive) | 2.01 µM (inactive) | 6.41 µM (inactive) | 2.84 µM (inactive) | 1.99 µM (inactive) | 16.2 µM (inactive) | 10 µM (inactive) | 4.83 µM (inactive) | 13.9 µM (inactive) | 9.2 µM (inactive) | 3.27 µM (inactive) | 17.4 µM (inactive) | – | – | – | – |
| O=C(O)Cn1c(=O)[nH]c(=O)c2[nH]cnc21 | > 100 µM (inactive) | > 100 µM (inactive) | > 100 µM (inactive) | > 100 µM (inactive) | > 100 µM (inactive) | > 100 µM (inactive) | > 100 µM (inactive) | > 100 µM (inactive) | > 100 µM (inactive) | > 100 µM (inactive) | > 100 µM (inactive) | > 100 µM (inactive) | > 100 µM (inactive) | > 100 µM (inactive) | > 100 µM (inactive) | > 100 µM (inactive) | – | – | – | – |
| COc1cc(O)cc(O)c1C(=O)CC(Cl)(Cl)Cl | > 100 µM (inactive) | > 100 µM (inactive) | > 100 µM (inactive) | > 100 µM (inactive) | > 100 µM (inactive) | > 100 µM (inactive) | > 100 µM (inactive) | > 100 µM (inactive) | > 100 µM (inactive) | – | > 100 µM (inactive) | > 100 µM (inactive) | > 100 µM (inactive) | > 100 µM (inactive) | > 100 µM (inactive) | > 100 µM (inactive) | > 100 µM (inactive) | > 100 µM (inactive) | > 100 µM (inactive) | – |
| Cc1ccc(-c2n[nH]c(=O)n2/N=C\c2ccc([N+](=O)[O-])cc2)cc1 | > 35.7 µM (inactive) | 72.6 µM (inactive) | > 100 µM (inactive) | > 100 µM (inactive) | 31.8 µM (inactive) | > 100 µM (inactive) | > 65.6 µM (inactive) | > 42.2 µM (inactive) | > 73.8 µM (inactive) | > 100 µM (inactive) | > 100 µM (inactive) | > 80.5 µM (inactive) | > 100 µM (inactive) | > 100 µM (inactive) | > 71.9 µM (inactive) | > 100 µM (inactive) | > 91.8 µM (inactive) | 41.1 µM (inactive) | > 100 µM (inactive) | – |
| COC(=O)N/N=C(\C)C(CN1CCCCC1)C(C1=C(O)c2ccccc2OC1)c1ccccc1 (centres undefined) | > 100 µM (inactive) | > 100 µM (inactive) | > 100 µM (inactive) | > 100 µM (inactive) | > 100 µM (inactive) | > 100 µM (inactive) | > 100 µM (inactive) | > 100 µM (inactive) | 17.9 µM (inactive) | > 100 µM (inactive) | > 100 µM (inactive) | > 100 µM (inactive) | > 100 µM (inactive) | > 100 µM (inactive) | > 100 µM (inactive) | > 100 µM (inactive) | – | – | – | – |
| CCOC(=O)C=C1CCN(C(=O)c2ccccc2)CC1 | > 100 µM (inactive) | > 100 µM (inactive) | > 100 µM (inactive) | > 100 µM (inactive) | 15.4 µM (inactive) | > 100 µM (inactive) | > 100 µM (inactive) | > 100 µM (inactive) | > 100 µM (inactive) | < 0.01 µM (active) | > 100 µM (inactive) | > 100 µM (inactive) | > 100 µM (inactive) | > 100 µM (inactive) | > 100 µM (inactive) | > 100 µM (inactive) | – | – | – | – |
| CC(C)(C)c1ccc2c(c1)C(O)(c1ccccc1)c1cc(C(C)(C)C)ccc1C2(O)C(F)(F)F (centres undefined) | 2.29 µM (inactive) | 1.87 µM (inactive) | 1.83 µM (inactive) | 1.93 µM (inactive) | 2.13 µM (inactive) | 1.94 µM (inactive) | 1.57 µM (inactive) | 1.77 µM (inactive) | 1.82 µM (inactive) | 1.76 µM (inactive) | 3.98 µM (inactive) | 2.14 µM (inactive) | 1.61 µM (inactive) | 1.76 µM (inactive) | 1.88 µM (inactive) | 2.33 µM (inactive) | – | – | – | – |
| COCCn1cnc2c(Cl)nc(Nc3ccccc3)nc21 | 22.9 µM (inactive) | 27.7 µM (inactive) | 22 µM (inactive) | > 100 µM (inactive) | 26.2 µM (inactive) | 16.5 µM (inactive) | 64 µM (inactive) | 23.3 µM (inactive) | 20.9 µM (inactive) | 17.7 µM (inactive) | > 100 µM (inactive) | 17.9 µM (inactive) | 82.4 µM (inactive) | 26.4 µM (inactive) | 32.3 µM (inactive) | 36.7 µM (inactive) | 29.8 µM (inactive) | 24.1 µM (inactive) | 39.2 µM (inactive) | – |
| CC(C)(C)c1ccc(/C=N/NC(=O)CSCC(=O)N/N=C/c2ccc(C(C)(C)C)cc2)cc1 | 1.72 µM (inactive) | 2.03 µM (inactive) | 3.88 µM (inactive) | 2.53 µM (inactive) | 1.7 µM (inactive) | – | 1.83 µM (inactive) | 2.12 µM (inactive) | 2.15 µM (inactive) | 2.28 µM (inactive) | 5.21 µM (inactive) | 2.93 µM (inactive) | 3.61 µM (inactive) | 1.77 µM (inactive) | 2.59 µM (inactive) | 3.02 µM (inactive) | 4.88 µM (inactive) | 3.17 µM (inactive) | 4.26 µM (inactive) | – |
| Cc1cccc(/C=C2/C(=O)Nc3ccccc32)n1 | 9.95 µM (inactive) | 12.2 µM (inactive) | 23.4 µM (inactive) | 13.2 µM (inactive) | – | 14.2 µM (inactive) | 24.1 µM (inactive) | 7.5 µM (inactive) | 10.6 µM (inactive) | 12.8 µM (inactive) | 15.7 µM (inactive) | 10.3 µM (inactive) | 16.9 µM (inactive) | – | 19.3 µM (inactive) | – | 4.95 µM (inactive) | 24.2 µM (inactive) | 14.6 µM (inactive) | – |
| c1ccc2c(c1)Nc1cccc3c1c-2nc1cc2ccccc2cc13 | – | 1.75 µM (inactive) | 1.87 µM (inactive) | 1.62 µM (inactive) | – | 1.59 µM (inactive) | 1.72 µM (inactive) | – | 1.57 µM (inactive) | 1.48 µM (inactive) | 1.87 µM (inactive) | 1.53 µM (inactive) | 1.65 µM (inactive) | 1.69 µM (inactive) | 1.53 µM (inactive) | 1.58 µM (inactive) | – | 2.24 µM (inactive) | 2.2 µM (inactive) | 1.45 µM (inactive) |
| Cc1ccc(NC(=O)CC(=O)N2N=C(N(c3ccccc3)c3ccccc3)CC2c2ccccc2)cc1 (centres undefined) | > 100 µM (inactive) | > 100 µM (inactive) | > 100 µM (inactive) | > 100 µM (inactive) | – | > 100 µM (inactive) | > 100 µM (inactive) | > 100 µM (inactive) | 52.8 µM (inactive) | > 100 µM (inactive) | > 100 µM (inactive) | > 100 µM (inactive) | > 100 µM (inactive) | – | > 100 µM (inactive) | > 100 µM (inactive) | > 100 µM (inactive) | 31.6 µM (inactive) | > 100 µM (inactive) | – |
| N#Cc1c(-c2ccc([N+](=O)[O-])cc2)c(C#N)c(=O)n(NS(=O)(=O)c2ccccc2)c1-c1ccccc1 | > 100 µM (inactive) | > 100 µM (inactive) | > 100 µM (inactive) | > 100 µM (inactive) | – | – | > 100 µM (inactive) | > 100 µM (inactive) | > 100 µM (inactive) | > 100 µM (inactive) | > 100 µM (inactive) | > 100 µM (inactive) | > 100 µM (inactive) | > 100 µM (inactive) | > 100 µM (inactive) | > 100 µM (inactive) | – | > 100 µM (inactive) | > 100 µM (inactive) | – |
| CSc1nc(O)c2cn(Cc3ccccc3)nc2n1 | > 100 µM (inactive) | > 100 µM (inactive) | > 100 µM (inactive) | > 100 µM (inactive) | > 100 µM (inactive) | > 100 µM (inactive) | 98.2 µM (inactive) | > 100 µM (inactive) | > 91 µM (inactive) | > 100 µM (inactive) | > 61.7 µM (inactive) | > 76.4 µM (inactive) | > 100 µM (inactive) | > 100 µM (inactive) | > 100 µM (inactive) | > 100 µM (inactive) | – | – | – | – |
| CCOC(=O)c1nc2cc(C(F)(F)F)ccc2nc1Nc1ccc(C(=O)NC(C(=O)OCC)C(=O)OCC)cc1 | 73.6 µM (inactive) | 19 µM (inactive) | 10.6 µM (inactive) | 27.5 µM (inactive) | 46.9 µM (inactive) | 45.4 µM (inactive) | 25.1 µM (inactive) | > 100 µM (inactive) | 13.6 µM (inactive) | 52.5 µM (inactive) | 24.7 µM (inactive) | 23.3 µM (inactive) | 73.6 µM (inactive) | 18.9 µM (inactive) | 40.8 µM (inactive) | 18.7 µM (inactive) | – | 12.4 µM (inactive) | – | > 10 µM (inactive) |
| CCOC(=O)c1nc(C)oc1C(F)(F)F | > 100 µM (inactive) | > 100 µM (inactive) | > 100 µM (inactive) | > 100 µM (inactive) | > 100 µM (inactive) | > 100 µM (inactive) | > 100 µM (inactive) | > 100 µM (inactive) | > 100 µM (inactive) | > 100 µM (inactive) | > 100 µM (inactive) | > 100 µM (inactive) | > 100 µM (inactive) | > 100 µM (inactive) | > 100 µM (inactive) | > 100 µM (inactive) | – | – | – | – |
